Assay results published in patent EP0471358B1, “Fluoroethylcamptothecin derivatives” (KYORIN PHARMACEUTICAL CO., LTD., priority 1990, dated 1992).

Each compound was assayed on P388 leukemia (assay: Antineoplastic effect for P388 leukemia mice (survival, T/C)). Conditions: Total dose 20 mg/kg; dosed to the abdominal cavity 1, 5 and 9 days after transplantation of 10⁶ P388 cells; average survival days of dosed vs non-dosed group.
Assay type: in vivo, CDF₁ mice
Protocol: P388 cells of 10⁶ in number were transplanted into abdominal cavity of CDF₁ mice of approximately 9 week-age (female, Non-dosed group: 5 - 8 mice, group dosed with the test compound: 1 - 5 mice). One, five, and nine days after the transplantation, the test compound which was dissolved or suspended in 1% Tween 80 (Kanto Chemical Inc.)/physiological saline was dosed to the abdominal cavity. The antineoplastic effect of the test compounds are shown by the T/C value (%) derived from the formula below. (T)/(C)(%) =(Average survival days of dosed group)/(Average survival days of non-dosed group)x 100 [formula]

| Compound | T/C (%) |
| --- | --- |
| CC[C@@]1(O)C(=O)OCc2c1cc1n(c2=O)Cc2cc3ccccc3nc2-1 [Camptothecin] | 218% |
| CCc1c2c(nc3ccc(C)cc13)-c1cc3c(c(=O)n1C2)COC(=O)C3(O)CCF (stereo not shown) [Example 11, 11-ethyl-4-(2-fluoroethyl)-4-hydroxy-9-methyl-1H-pyrano[3',4':6,7]indolizino[1,2-b]quinoline-3,14(4H,12H)-dione] | 483% |
| CCc1c2c(nc3ccc([N+](=O)[O-])cc13)-c1cc3c(c(=O)n1C2)COC(=O)C3(O)CCF (stereo not shown) [Example 16, 11-ethyl-4-(2-fluoroethyl)-4-hydroxy-9-nitro-1H-pyrano[3',4':6,7]indolizino[1,2-b]quinoline-3,14(4H,12H)-dione] | 345% |
| O=C1OCc2c(cc3n(c2=O)Cc2c-3nc3ccc(Cl)c4c3c2CCC4)C1(O)CCF (stereo not shown) [Example 24, 4-chloro-9-(2-fluoroethyl)-2,3-dihydro-9-hydroxy-1H,12H-benzo[d,e]pyrano[3',4':6,7]indolizino[1,2-b]quinoline-10,13(9H,15H)-dione] | 385% |

Same assay, conditions: Total dose 30 mg/kg; dosed to the abdominal cavity 1, 5 and 9 days after transplantation of 10⁶ P388 cells; average survival days of dosed vs non-dosed group

| Compound | T/C (%) |
| --- | --- |
| CCc1ccc2nc3c(c(CC)c2c1)Cn1c-3cc2c(c1=O)COC(=O)C2(O)CCF (stereo not shown) [Example 25, 9,11-diethyl-4-(2-fluoroethyl)-4-hydroxy-1H-pyrano[3',4':6,7]indolizino[1,2-b]quinoline-3,14(4H,12H)-dione] | 345% |
| CCOc1ccc2nc3c(c(CC)c2c1)Cn1c-3cc2c(c1=O)COC(=O)C2(O)CCF (stereo not shown) [Example 26, 9-ethoxy-11-ethyl-4-[2-fluoroethyl)-4-hydroxy-1H-pyrano[3',4':6,7]indolizino[1,2-b]quinoline-3,14(4H,12H)-dione] | 583% |
| Cc1c2c(nc3ccccc13)-c1cc3c(c(=O)n1C2)COC(=O)C3(O)CCF (stereo not shown) [Example 41, 4-[2-fluoroethyl)-4-hydroxy-11-methyl-1H-pyrano[3',4':6,7]indolizino[1,2-b]quinoline-3,14(4H,12H)-dione] | 386% |
